The text below walks through data of ChEMBL document CHEMBL4257522, “Synthesis and preliminary anti-inflammatory and anti-bacterial evaluation of some diflunisal aza-analogs” (Medchemcomm, 2018).

Data set [1] relates to Macrophage cell line. Put plainly: Antiinflammatory activity in human PBMC-differentiated macrophages assessed as lowest concentration required to show at least 25% inhibition of LPS-induced IL-1beta production measured after 24 hrs by ELISA. The class given is functional.
The test system of data set [2] is Macrophage cell line. Put plainly: Antiinflammatory activity in human PBMC-differentiated macrophages assessed as lowest concentration required to show at least 25% inhibition of LPS-induced IL-8 production measured after 24 hrs by ELISA. The class given is functional. In general terms: An ELISA detects its analyte on a solid surface through an enzyme-linked reagent.

Data set [3] has as its system Escherichia coli. Put plainly: Potentiation of geneticin-induced antibacterial activity against Escherichia coli ATCC 43894 assessed as minimum modulatory concentration up to 32 uM measured after 16 hrs in presence of MIC/4 geneticin. In kind it is functional. As to conditions: ATCC 43894, 16 h, read-out: MEC.
Data set [4] relates to Macrophage cell line. Put plainly: Antiinflammatory activity in human PBMC-differentiated macrophages assessed as lowest concentration required to show at least 25% inhibition of LPS-induced prostaglandin production measured after 24 hrs by ELISA. In kind it is functional.
Data set [5] deals with Klebsiella pneumoniae. Put plainly: Potentiation of methicillin-induced antibacterial activity against Klebsiella pneumoniae ATCC 13883 assessed as minimum modulatory concentration up to 32 uM measured after 16 hrs in presence of MIC/4 methicillin. In kind it is functional. The note with it: ATCC 13883, 16 h, read-out: MEC.
Data set [6] concerns Pseudomonas aeruginosa. Put plainly: Toxicity in Pseudomonas aeruginosa ATCC BAA-2108 up to 32 uM measured after 16 hrs. In kind it is organism-based. The note with it: in vitro.
Data set [7] has as its system Klebsiella pneumoniae. Put plainly: Potentiation of erythromycin-induced antibacterial activity against Klebsiella pneumoniae ATCC 13883 assessed as minimum modulatory concentration up to 32 uM measured after 16 hrs in presence of MIC/4 erythromycin. The class given is functional. The note with it: ATCC 13883, 16 h, read-out: MEC.
In a further data set the test system is Enterococcus faecium. Put plainly: Potentiation of ciprofloxacin-induced antibacterial activity against Enterococcus faecium ATCC 700221 assessed as minimum modulatory concentration up to 32 uM measured after 16 hrs in presence of MIC/4 ciprofloxacin. The class given is functional. As to conditions: ATCC 700221, 16 h, read-out: MEC.
Data set [8] concerns Pseudomonas aeruginosa. Put plainly: Potentiation of geneticin-induced antibacterial activity against Pseudomonas aeruginosa ATCC BAA-2108 assessed as minimum modulatory concentration up to 32 uM measured after 16 hrs in presence of MIC/4 geneticin. In kind it is functional. The note with it: ATCC BAA-2108, 16 h, read-out: MEC.
Data set [9] deals with Macrophage cell line. Put plainly: Antiinflammatory activity in human PBMC-differentiated macrophages assessed as lowest concentration required to show at least 25% inhibition of LPS-induced TNFalpha production measured after 24 hrs by ELISA. In kind it is functional.
For data set [10], the system named is Escherichia coli. Put plainly: Potentiation of methicillin-induced antibacterial activity against Escherichia coli ATCC 43894 assessed as minimum modulatory concentration up to 32 uM measured after 16 hrs in presence of MIC/4 methicillin. The class given is functional. As to conditions: ATCC 43894, 16 h, read-out: MEC.
The test system of data set [11] is Macrophage cell line. Put plainly: Induction of TNFalpha production in human PBMC-differentiated macrophages after 24 hrs by ELISA. In kind it is cell-based.
For data set [12], the system named is Macrophage cell line. Put plainly: Antiinflammatory activity in human PBMC-differentiated macrophages assessed as inhibition of LPS-induced IL-8 production at 0.01 to 10 uM measured after 24 hrs by ELISA. In kind it is functional, cell-based.

Calls of active or inactive are those of the source. The rule behind the calls is not given here.

For `O=C(O)c1cc(-c2ccc(F)cc2F)ncc1O`, the Activity with Macrophage cell line [1] was 1 µM; in the data set on Macrophage cell line [2] it was 1 µM; in the data set with Macrophage cell line [4], 10 µM; in the data set with Pseudomonas aeruginosa [6], “Non-Toxic”; in the data set on Macrophage cell line [9], 1 µM; in the data set with Macrophage cell line [11], “Non-Toxic”. The minimal effective concentration in the data set with Escherichia coli [3], in the data set with Klebsiella pneumoniae [5], with Klebsiella pneumoniae [7], with Enterococcus faecium, in the data set with Pseudomonas aeruginosa [8] and in the data set on Escherichia coli [10] was over 32 µM throughout.

Take `O=C(O)c1cnc2c(F)cc(F)cc2c1O`: the Activity in the data set with Macrophage cell line [1] is 1 µM; in the data set with Macrophage cell line [2], 10 µM; in the data set on Macrophage cell line [4], 10 µM; with Pseudomonas aeruginosa [6], “Non-Toxic”; in the data set with Macrophage cell line [9], 1 µM; in the data set on Macrophage cell line [11], “Non-Toxic”. In addition, the minimal effective concentration in the data set with Escherichia coli [3], in the data set on Klebsiella pneumoniae [5], in the data set on Klebsiella pneumoniae [7], with Enterococcus faecium, with Pseudomonas aeruginosa [8] and with Escherichia coli [10] was over 32 µM each time.

As for `O=C(O)c1cc(-c2ccccc2)nc(-c2ccccc2)c1O`, the Activity in the data set on Macrophage cell line [1] is 10 µM; in the data set with Macrophage cell line [4], 10 µM; with Pseudomonas aeruginosa [6] it was “Non-Toxic”; in the data set with Macrophage cell line [9], 10 µM; with Macrophage cell line [11], “Non-Toxic”. For the same compound, in the data set with Macrophage cell line [12], the inhibition result was “inactive”. Moreover, the minimal effective concentration with Escherichia coli [3], in the data set with Klebsiella pneumoniae [5], in the data set on Klebsiella pneumoniae [7], in the data set with Enterococcus faecium, in the data set on Pseudomonas aeruginosa [8] and in the data set on Escherichia coli [10] was over 32 µM in each case.
